Laboratory results reported in doi:10.1101/2025.09.29.679234, “Engineered antimicrobial-derived peptides to manipulate mixed microbial systems” (bioRxiv, 2025).
Read-outs that look alike come from different tables or passages of the source. No end group written: not given here.

Test system: L. seeligeri
Type: cell-based, Listeria seeligeri
Settings: for antimicrobial activity (in words): kill curve / growth inhibition, Figures S7 and S9
Procedure: To determine the potency of the purified pediocin PA-1, we generated kill-curves against a range of target bacteria (Figure 1B). The concentration range tested was 3 pM to 3 μM following 10-fold serial dilutions. […] This is in approximate agreement with the published potency of pediocin PA-1 [28] . Though the molecular mass of pediocin PA-1 is expected to be 4.5 kDa, we observed the partially purified peptide to migrate with an apparent mass of ~12.5 kDa (Figure 1B). However, subsequent analysis by LC-MS yielded peaks of multiple m/z with the predominant peak at the expected molecular size of 4.6 kDa (Figure S4). The purified pediocin PA-1, separated on denaturing but non-reducing SDS-PAGE (since this bacteriocin contains two crucial disulfide bonds), was subjected to agar-overlay assay using L. seeligeri as indicator organism (Figure S5).
The antimicrobial spectrum of pediocin PA-1 was assayed using a kill curve. Cultures grown overnight were resuspended in fresh medium at an OD600 of 0.05. EC50 was determined by incubating cells with varying concentrations of pediocin in a 96-well plate, and growth was measured at 600 nm after 24 h.
Figure S7. Growth inhibition of L. seeligeri by modified and unmodified pediocin PA-1.

Row | Molecule | antimicrobial activity (in words) | EC50 (24 h) [nM] | antimicrobial activity (in words) (listed as conjugate to NBD)
1 | CC[C@H](C)[C@@H]1NC(=O)[C@@H](NC(=O)[C@@H](NC(=O)[C@@H](NC(=O)[C@H](C)NC(=O)[C@H](CCCCN)NC(=O)CNC(=O)[C@H](Cc2c[nH]c3ccccc23)NC(=O)[C@H](CC(=O)O)NC(=O)[C@@H](NC(=O)[C@H](CO)NC(=O)[C@@H]2CSSC[C@H](NC(=O)[C@@H](NC(=O)[C@@H](NC(=O)CNC(=O)[C@H](CC(N)=O)NC(=O)CNC(=O)[C@H](Cc3ccc(O)cc3)NC(=O)[C@H](Cc3ccc(O)cc3)NC(=O)[C@@H](N)CCCCN)C(C)C)[C@@H](C)O)C(=O)NCC(=O)N[C@@H](CCCCN)C(=O)N[C@@H](Cc3c[nH]cn3)C(=O)N[C@@H](CO)C(=O)N2)C(C)C)[C@@H](C)O)[C@@H](C)O)CSSC[C@@H](C(N)=O)NC(=O)[C@H](CCCCN)NC(=O)[C@H](Cc2c[nH]cn2)NC(=O)[C@H](CC(N)=O)NC(=O)CNC(=O)[C@H](CCC(N)=O)NC(=O)[C@H](Cc2c[nH]cn2)NC(=O)CNC(=O)CNC(=O)[C@H]([C@@H](C)O)NC(=O)[C@H](C)NC(=O)[C@H](Cc2c[nH]c3ccccc23)NC(=O)[C@H](C)NC(=O)[C@H](CCSC)NC(=O)[C@H](C)NC(=O)CNC(=O)[C@H](CC(N)=O)NC(=O)[C@H](CC(N)=O)NC(=O)[C@H]([C@@H](C)CC)NC1=O [pediocin PA-1 from Biomatik, reference compound] | very low activity |  | 
2 | CC[C@H](C)[C@@H]1NC(=O)[C@@H](NC(=O)[C@@H](NC(=O)[C@@H](NC(=O)[C@H](C)NC(=O)[C@H](CCCCN)NC(=O)CNC(=O)[C@H](Cc2c[nH]c3ccccc23)NC(=O)[C@H](CC(=O)O)NC(=O)[C@@H](NC(=O)[C@H](CO)NC(=O)[C@@H]2CSSC[C@H](NC(=O)[C@@H](NC(=O)[C@@H](NC(=O)CNC(=O)[C@H](CC(N)=O)NC(=O)CNC(=O)[C@H](Cc3ccc(O)cc3)NC(=O)[C@H](Cc3ccc(O)cc3)NC(=O)[C@@H](N)CCCCN)C(C)C)[C@@H](C)O)C(=O)NCC(=O)N[C@@H](CCCCN)C(=O)N[C@@H](Cc3c[nH]cn3)C(=O)N[C@@H](CO)C(=O)N2)C(C)C)[C@@H](C)O)[C@@H](C)O)CSSC[C@@H](C(N)=O)NC(=O)[C@H](CCCCN)NC(=O)[C@H](Cc2c[nH]cn2)NC(=O)[C@H](CC(N)=O)NC(=O)CNC(=O)[C@H](CCC(N)=O)NC(=O)[C@H](Cc2c[nH]cn2)NC(=O)CNC(=O)CNC(=O)[C@H]([C@@H](C)O)NC(=O)[C@H](C)NC(=O)[C@H](Cc2c[nH]c3ccccc23)NC(=O)[C@H](C)NC(=O)[C@H](CCSC)NC(=O)[C@H](C)NC(=O)CNC(=O)[C@H](CC(N)=O)NC(=O)[C@H](CC(N)=O)NC(=O)[C@H]([C@@H](C)CC)NC1=O [synthetic pediocin PA-1, reference compound] |  | ~40 | 
3 | synthetic pediocin-Atto488 conjugate: Atto488 conjugated to the synthetic pediocin using EDC-NHS coupling (KYYGNGVTCGKHSCSVDWGKATTCIINNGAMAWATGGHQGNHKC; disulfide (positions not given here); ends not checked; also: Atto488 conjugated via EDC-NHS, site not given here; UniProt P29430 19-62, looked up) | inactive |  | 
4 | synthetic pediocin-NBD conjugate: NBD (7-nitrobenz-2-oxa-1,3-diazole) conjugated to the synthetic pediocin using EDC-NHS coupling (KYYGNGVTCGKHSCSVDWGKATTCIINNGAMAWATGGHQGNHKC; disulfide (positions not given here); ends not checked; also: NBD conjugated via EDC-NHS, site not given here; UniProt P29430 19-62, looked up) | inactive |  | very low activity
